The conditions of data set [1]: at 37° C.; cited from earlier work.
The nature of data set [2]: Oral administration of drug compositions to rats, blood (plasma) drug concentration by HPLC and AUC. Particulars: average of five rats. It counts as in vivo, wistar rats. The procedure: As test animals, 9-week-old male clean wistar rats (five rats for each of drug compositions A to F) were used. […] After the administration, blood was collected from the neck vein of each clean wistar rat at predetermined time intervals and was centrifuged (10000 rpm, 5 min) to obtain plasma. Four hundred microliters of methanol was added to 100 μL of the obtained plasma, and the mixture was mixed for 1 minute with a vortex mixer and was centrifuged (10000 rpm, 5 min). […] One hundred microliters of ethanol was added to the resulting dried substance, and the blood drug concentration was measured using a UV detector (JASCO PU-970) of HPLC (JASCO PU-980). […] Based on the thus-measured blood drug concentrations of the drug compositions, concentration changes with passage of time and areas under blood drug concentration-time curves (AUC) were studied. […] Note that the values of AUC and blood drug concentration in Table 1 and FIGS. 1 to 6 are averages in the five clean wistar rats administered with each of the drug compositions A to F, and “SE” means standard error.

The conditions of data set [3]: cited from earlier work.

Consider two compounds from patent US20110189311A1, “Highly Absorbable Drug Composition and Method of Producing the Same” (TOYO SUGAR REFINING CO., LTD., priority 2009, published 2011).

As for `CC(C(=O)O)c1ccc(-c2ccccc2)c(F)c1` (centres unmarked) [flurbiprofen], the “solubility in neutral water” value in data set [1] was 25 μg/mL water. Moreover, the “AUC (area under flurbiprofen plasma concentration-time curve)” value in data set [2] (flurbiprofen (FP), dose 2 mg/kg) turned out to be 22060 ng·h/mL.

Turning to `CC(C)(Sc1cc(C(C)(C)C)c(O)c(C(C)(C)C)c1)Sc1cc(C(C)(C)C)c(O)c(C(C)(C)C)c1` [probucol], the “solubility in neutral water” value in data set [1] is listed as 3 to 5 ng/mL water. The bioavailability to human result in data set [3] was “about 5%”. The “AUC (area under probucol plasma concentration-time curve)” value in data set [2] (probucol (PRO), dose 200 mg/kg) is 4940 ng·h/mL.
